Measurements: patent US12263144B2, “Methods of treating IgA nephropathy with thiol-containing molecules” (Accubit LLC—Biotechnology, priority 2020, dated 2025)

Assays:
[1] = test system: glomerular human IgA1 deposition; assay: Passive mouse model of IgA deposition (human IgA1 injection), glomerular immunofluorescence and blood IgA1; assay type: in vivo, BALB/c mice; details: mice, 200 mg/kg s.c. 2 h before human IgA1 injection, n=6; buffer 2293±163
Method: To establish the passive rat model, 5 mg/kg.BW recombinant rat rIgA, which contained a fraction of poly-rIgA, were i.v. injected daily to six 14-weeks old male Wistar rats (Charles River Labs, USA) for 5 consecutive days. Every day, three rats in each group had received a subcutaneous dose of either 250 mg/kg cysteamine, or buffer control, two hours before the rIgA injection. Twenty-four hours after the last injection of rIgA, kidneys were collected for immunofluorescence detection of deposits with goat-anti-rat IgA antibody (Cat: STAR111, Biorad laboratory). Similarly, a passive IgA nephrophathy mouse model was established by injecting 35 mg/kg purified human IgA1 in BALB/c mice (Charles River Labs). Two hours before IgA1 injection, six mice in each experimental group had each received a pretreatment dose of either 200 mg/kg cysteamine, or PBS, via subcutaneous injection. Two and a half hours after human IgA1 injection, kidneys were harvested, and specimens were stained with FITC-conjugated anti-human IgA antibody (Cat: 2050-02, SouthernBiotech). Plasma samples were collected at 0.5 h, 1 h and 2 h after IgA1 injection of all mice.
Frozen tissues were sectioned at 4 μm for IgA detection using goat anti-rat IgA (Cat: STAR111, Bio-Rad Laboratories) at 1:100, or anti-human IgA antibody (Cat: 2050-02, […]) at 1:80 dilution. […]

rat poly-rIgA = assay: Nonreducing SDS-PAGE analysis of rat poly-rIgA after pretreatment; assay type: biochemical; details: cysteamine 0 to 10 mM; TCEP 10 mM; untreated poly-IgA >250 kDa
Method: Proteins in sample buffer (Bio-Rad Laboratories, Hercules, CA, USA) with or without TCEP (for reducing or nonreducing condition, respectively) were resolved by 4-12% SDS-PAGE (Bio-Rad Laboratories). IgA bands were subsequently visualized either by staining with GelCode Blue (Thermo Fisher Scientific), or by Western blotting on PVDF membrane. For Western blotting, 5% non-fat milk was used in blocking for one hour at room temperature. The membrane was then incubated with mouse anti-Histag antibody (Thermo Scientific), or HRP-conjugated goat anti-rat IgA α-chain antibody (Cat. ab97185, Abcam, UK), or goat anti-human IgA HRP antibody (Cat: 2050-05, SouthernBiotech) for detecting rat or human IgA (Fc), respectively. The membrane was developed using the Clarity™ ECL substrate (Bio-Rad Laboratories, CA, USA).
To further ascertain the mechanism-of-action of cysteamine in targeting disulfides, nonreducing SDS-PAGE analysis was performed of rat poly-rIgA (FIG. 5, part D). The samples were pretreated with 0 to 10 mM cysteamine, or 10 mM TCEP as positive control. As expected, poly-IgA appeared as >250 kDa bands on SDS-PAGE. Dose-dependent response of poly-rIgA to cysteamine was evident, with majority of the protein running at ˜64 kDa of disaggregated monomers.

Compound: NCCS [cysteamine]
- glomerular IgA1 intensity (Mean±SEM) [1]: 870±193
- molecular weight of protein band after pretreatment (nonreducing SDS-PAGE) (rat poly-rIgA): ~64 kDa
